Legend:
[1] = test system: HLMs; assay: Chemical inhibition assays of BBR metabolism in HLMs; format: in vitro ADME, human; settings: BBR 15 μM, inhibitor 5 μM, 30 min, control without inhibitor = 100%
Procedure: (§1) The incubation was performed in duplicates.
The incubations were performed in duplicates.
(§2) The flow-rate was 0.2 ml/min. […] The MS was operated in positive ESI mode. […] Data were analyzed by Xcalibur 1.2 software.

[2] = test system: InsR; assay: Double immune-staining and flow cytometry, cell-surface protein expression in HepG2; format: cell-based, human; settings: HepG2, 8 hrs; BBR 27 μM, simvastatin 1 μM, rosiglitazone 10 μM
Procedure: (§3) The Human hepatoma cell line HepG2 was obtained from the American Tissue Culture Collection (ATCC, USA). […] The study compounds were diluted in culture medium prior to use. […] The corresponding isotype-matched, nonspecific mouse and rabbit IgGs were used respectively as controls for nonspecific staining. After washing in PBS, cells were stained with a fluorescein isothiocyanate (FITC)-conjugated goat anti-mouse IgG (green color, Santa Cruz Biotechnology), as well as a tetramethyl rhodamine isothiocyanate (TRITC)-conjugated goat anti-rabbit IgG (red color, Santa Cruz Biotechnology). The fluorescence intensities were analyzed in a FACS (FACSort, Becton Dickinson).

[3] = test system: LDLR; assay: as above; format: cell-based, human; settings: HepG2, 8 hrs; BBR 27 μM, simvastatin 1 μM, rosiglitazone 10 μM
Procedure: as §3

[4] = test system: rCYP450 isoenzymes; assay: Detection of BBR metabolites after incubation with rCYP450 isoenzymes; format: in vitro ADME, human; settings: cell-free reaction, LC-MS/MS
Procedure: as §1, §2

[5] = test system: human liver microsomes; assay: BBR metabolism in human liver microsomes (HLMs); format: in vitro ADME; settings: cell-free reaction, LC-MS/MS
Procedure: Incubation conditions were optimized to ensure the linearity with respect to the microsomal protein concentration and incubation time. […] After incubation of the mixture in a 37°C water bath with opening to the air, the reaction lasted for 30 min and was terminated by addition of 800 μl cold acetonitrile. Internal standard (40 μg/ml ampicillin, dissolved in acetonitrile) was added into the mixture, and then centrifuged at 16000 g for 15 min at 4°C. The supernatant was aspirated, followed by dilution in 0.2% acetic acid. 10 μl of the aliquot was injected into the LC-MS/MS system for analysis. Control samples were incubated without NADPH. The incubation was performed in duplicates.
as §2

[6] = test system: LDLR mRNA; assay: LDLR mRNA real-time RT-PCR in HepG2 cells; format: cell-based, human; settings: HepG2, 40 μM, 8 hrs
Procedure: (§4) The Human hepatoma cell line HepG2 was obtained from the American Tissue Culture Collection (ATCC, USA). HepG2 cells were grown in Eagle's Minimum Essential Medium (GIBCO) supplemented with 10% fetal bovine serum (GIBCO), 1% non-essential amino acids (GIBCO) and 1% antibiotics (100 units/ml of penicillin and 100 μg/ml of streptomycin), and incubated at 37°C in a humidified atmosphere with 5% CO2.
(§5) The study compounds were diluted in culture medium prior to use.
(§6) Total cellular RNAs were isolated by the Ultraspec RNA lysis solution (Biotecxs Laboratory, Houston, TX) by following the vender's instruction. Total RNAs were reversely transcribed into cDNAs using the Reverse Transcription System (Promega, Madison, WI). Quantitative real time PCR was performed with these cDNAs as described previously, with β-Actin as an internal control. Normalized InsR or LDLR mRNA expression levels were plotted as fold of the untreated control. The primers used were described previously.

[7] = test system: AMPK; assay: AMPK-alpha phosphorylation immunoblot in HepG2 cells; format: cell-based, human; settings: HepG2, 20 μM, 24 hrs
Procedure: as §4, §5
Sample cells were rinsed with phosphate-buffered saline and lysed in SDS-PAGE loading buffer. Cell lysates were subjected to 8% SDS-PAGE for protein separation, and protein bands were transferred onto polyvinylidene difluoride membranes (Millipore). The amount of protein and extent of phosphorylation were estimated using the following primary rabbit antibodies, anti-phospho-AMPK-α-Thr-172 antibody, anti-AMPK-α antibody as well as anti-β-actin antibody (Cell signaling Technology, USA). The secondary antibody was peroxidase-conjugated goat anti-rabbit antibody (Cell signaling Technology, USA).

[8] = BBR metabolites in rat liver after oral BBR, LC-MS/MS; format: in vivo, Male Wistar rats; settings: 3 hrs after BBR oral administration 200 mg/kg; for Detection of metabolite in rat liver: LC-MS/MS; for Relative level of metabolite in rat liver: among M1-M4
Procedure: Male Wistar rats (200-240 g, 8-week-old) purchased from Vital River Laboratories (Beijing, China) fasted overnight and were free access to water before drug administration. […] 2 g of the liver sample was washed with 5 mL normal saline, cut into small pieces and extracted with 3-fold volume acetonitrile. After vortexed for 3 min, the extract was centrifuged at 16000 g for 15 min at 4°C and the supernatant was diluted with 0.2% acetic acid. Ten microlitre dilution aliquot was injected into the LC-MS/MS system for analysis.
as §2

[9] = ref [34]; cited from earlier work
[10] = target: T1, CYP2C9 (Homo sapiens, UniProt P11712); assay: BBR metabolism in recombinant human CYP450 isoenzyme; format: in vitro ADME; settings: BBR 20 μM, 50 pmol/ml rCYP450, 30 min
T1 construct: purchased BD Gentest; host or cells: baculovirus-insect cells
Procedure: The experiment was performed with the condition described in the method using HLMs for transformation. […] Control microsome prepared from insect cells, which were infected with wild-type baculovirus, severed as a negative control. The incubation was performed in duplicates.
Sample analysis was performed using an LC-MS/MS system (Thermo-Finnigan, San Jose, CA, USA), which consisted of a Surveyor LC pump with an on-line degasser, a Surveyor autosampler and a TSQ Quantum triple-quadrupole mass spectrometer equipped with an ESI probe. A Waters XTerra® MS C18 (2.1 ×50 mm, 3.5 μm) column (Milford, MA, USA) was used for separation at 25°C. The mobile phase consisted of 0.2% acetic acid in water (A) and 100% acetonitrile (B). The flow-rate was 0.2 ml/min. […] The column was allowed to equilibrate for 10 min after each run. Only the data from 2 min to 15 min was acquired by MS. The MS was operated in positive ESI mode. Nitrogen was used as both the sheath and auxiliary gas at a pressure of 35 and 10 arbitrary units, respectively. The spray voltage was set at 4.0 kV and the capillary temperature was at 270°C. […] The most abundant product ion of each chemical was chosen for selected reaction monitoring (SRM). Data were analyzed by Xcalibur 1.2 software.

[11] = test system: InsR mRNA; assay: InsR mRNA real-time RT-PCR in HepG2 cells; format: cell-based, human; settings: HepG2, 20 μM, 8 hrs, fold of untreated control
Procedure: as §4, §5, §6

[12] = oral administration, cited from earlier work

T1 sequence (P11712 whole entry): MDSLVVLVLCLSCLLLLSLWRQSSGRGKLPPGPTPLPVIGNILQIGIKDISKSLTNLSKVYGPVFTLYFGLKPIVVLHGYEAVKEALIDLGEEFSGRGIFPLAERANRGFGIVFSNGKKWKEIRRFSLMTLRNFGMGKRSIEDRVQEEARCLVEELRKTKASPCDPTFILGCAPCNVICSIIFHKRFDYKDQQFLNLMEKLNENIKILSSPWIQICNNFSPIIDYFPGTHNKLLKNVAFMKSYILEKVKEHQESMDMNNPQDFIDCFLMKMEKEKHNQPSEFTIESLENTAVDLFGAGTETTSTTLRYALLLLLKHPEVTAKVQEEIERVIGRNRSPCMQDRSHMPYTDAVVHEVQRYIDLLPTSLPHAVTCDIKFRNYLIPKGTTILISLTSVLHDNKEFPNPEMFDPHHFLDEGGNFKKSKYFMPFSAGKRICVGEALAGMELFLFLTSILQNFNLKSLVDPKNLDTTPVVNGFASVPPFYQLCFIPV

Row | Detection of metabolite after incubating BBR with rCYP450s [4] | Detection of metabolite after incubating BBR with HLMs [5] | Detection of metabolite in rat liver [8] | Compound | Effect on cell-surface InsR protein expression [2] | Effect on cell-surface LDLR protein expression [3] | Effect on LDLR mRNA expression [6] | AMPK activation (AMPK-alpha phosphorylation) [7] | other results
1 | – | – | – | O=c1cc(-c2ccccc2)oc2c1ccc1ccccc12 [ANF, α-naphthoflavone] | – | – | – | – | Decrease of M2 formation [1]: about 40%
2 | – | – | – | CCC(C)(C)C(=O)O[C@H]1C[C@@H](C)C=C2C=C[C@H](C)[C@H](CC[C@@H]3C[C@@H](O)CC(=O)O3)[C@H]21 [simvastatin] | not InsR | increased LDLR expression only | – | – | –
3 | – | – | – | CN(CCOc1ccc(CC2SC(=O)NC2=O)cc1)c1ccccn1 (stereo not drawn) [rosiglitazone] | effect on neither LDLR nor InsR | effect on neither LDLR nor InsR | – | – | –
4 | detectable | detectable | detectable | COc1c(O)ccc2cc3[n+](cc12)CCc1cc2c(cc1-3)OCO2 [M2, thalifendine] | – | – | remained to be active | increased the activity of AMPK but with a less potency | LDLR mRNA up-regulating activity as percent of that of BBR [6]: 26%; Relative level of metabolite in rat liver [8]: highest level
5 | – | – | – | COc1ccc2cc3[n+](cc2c1OC)CCc1cc2c(cc1-3)OCO2 [BBR, Berberine] | up-regulatory effect | up-regulatory effect | strongest up-regulator | most active compound | Share of BBR entering into blood stream (absorption in human gut) [9]: less than 10%; Transformation of BBR into metabolites by CYP2C9 [10]: very weak effect; Increase of InsR mRNA level [11]: over 2 folds; Reduction of blood cholesterol, triglyceride and glucose ([12]; patients with hyperlipidemia and type 2 diabetes, ref [2],[3],[5]-[7]): significant reduction; Side-effects on liver, kidney and muscle ([12]; patients, ref [2],[5]): no side-effects
6 | – | – | – | CC(=O)N1CCN(c2ccc(OCC3COC(Cn4ccnc4)(c4ccc(Cl)cc4Cl)O3)cc2)CC1 (stereo not drawn) [KET, ketoconazole] | – | – | – | – | Decrease of M2 formation [1]: not
7 | not detectable | not found | detectable | COc1cc2c(cc1O)CC[n+]1cc3c(OC)c(OC)ccc3cc1-2 [M4, jatrorrhizine] | – | – | without effect | not significant | –
8 | detectable | detectable | detectable | COc1ccc2cc3[n+](cc2c1OC)CCc1cc(O)c(O)cc1-3 [M3, demethyleneberberine] | – | – | without effect | not significant | –
9 | not detectable | not found | detectable | COc1ccc2cc3[n+](cc2c1O)CCc1cc2c(cc1-3)OCO2 [M1, berberrubine] | – | – | remained to be active | increased the activity of AMPK but with a less potency | LDLR mRNA up-regulating activity as percent of that of BBR [6]: 35%; Relative level of metabolite in rat liver [8]: lowest

From paper PMC3103436 (Journal of Translational Medicine, 2011)
